In patent US20250332173A1, “COMPOUNDS AND METHODS FOR MODULATING NUCLEIC ACID SPLICING” (REMIX THERAPEUTICS INC., priority 2021, published 2025):
Read-outs that look alike come from different tables or passages of the source.

Key:
[1] = tested on: HTT mRNA; test: RT-qPCR splicing assay, HTT canonical junction (CJ) and alternative junction (AJ) mRNA; type: cell-based, human; conditions: Homo sapiens
How it was run: (§1)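 Read-out is one-step RT-qPCR on cell lysates detecting the exon-exon junction of each isoform, normalized to a housekeeping gene (PPIA in A673, GAPDH or GUSB in K562).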

[2] = tested on: SMN2 mRNA; test: RT-qPCR splicing assay, SMN2 canonical junction (CJ) mRNA; type: cell-based, human; conditions: Homo sapiens, read-out: SMN2 IC50 (decrease in CJ mRNA levels)
How it was run: (§2)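 Read-out is canonical exon-exon junction mRNA quantified by RT-qPCR against a GAPDH, GUSB or PPIA control. Cells (A673 or K562) received compound for 24 h, top final dose 10 uM in an 11-point 3-fold series.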

[3] = tested on: Target C; test: RT-qPCR splicing assay panel, Target C canonical junction (CJ) mRNA; type: cell-based, human; conditions: Homo sapiens, read-out: Target C IC50 (decrease in CJ mRNA levels)
How it was run: as §2

[4] = tested on: MYB; test: HiBiT protein abundance assay, MYB HiBiT K562 cell line; type: cell-based, human
Description: (§3) Compounds described herein were used to screen for effects on quantitative protein abundance using a HiBit assay system (Promega). Quantitative protein abundance was determined by measuring the protein levels of HiBit-tagged protein targets expressed in cell culture via luminescence using the Nano-Glo HiBiT Lytic Detection System, which uses a split complementation assay format to reconstitute NanoBiT enzyme to generate a luminescent signal. A protein abundance assay was developed such that endogenous protein targets could be modified with the HiBiT peptide tag and their abundance could be assessed after compound treatment. Briefly, K562 cell lines containing a HiBiT-modification were treated with various compounds described herein (e.g., compounds of Formulas (I), (II), (III), (IV), (V), (VI), (VII), (VIII), or (IX)). After treatment for 24 hours, the protein abundance of a specific target was determined by measuring luminescence.
(§4) • Promega Nano-Glo HiBiT Lytic Detection System (cat #N3030) • Corning 384-well TC-treated microplates (cat #3570) • Synthego Engineered Cells Knock-In Clones
(§5) Cells were maintained in IMDM with 10% FBS. Before the assay, cells were diluted with […] growth media (IMDM+[…] media) and were seeded in a 384-well plate at a density of 10,000 cells/well (for each cell line listed in Table 5). Each compound was prepared as a 10-point 3-fold serial dilution in DMSO with the top dose at a final concentration of 10 μM in the well. Unmodified K562 cells were added at the previously specified density with DMSO to serve as an assay baseline and positive control (PC) and DMSO only with the respective modified cell lines was added to the negative control (NC) columns. Final DMSO concentration was kept at or below 0.25%. Treated cell plates were placed in an incubator at 37° C. with […] for 24 hours. After 24 hours, 25 μL of Complete HiBit Lytic reagent was added to each well at room temperature (e.g. one plate requiring 10 mL Lytic Buffer, 100 μL LgBiT Protein, 200 μL Lytic Substrate), shaken for 5 minutes at 600 RPM, then left to sit for 10 minutes for signal to stabilize before reading on a Spark Cyto plate reader (Tecan) with a 500 ms measurement time.
(§6) To determine compound effects on protein abundance of each target in Table 5, the percent response for each respective cell line was calculated at each compound concentration as follows:
(§7) For the normalized response at each concentration, a four-parameter logistical regression was fit to the data and the response was interpolated at the […] to determine a concentration for protein abundance at […] the untreated control.

[5] = tested on: HTT; test: HiBiT protein abundance assay, HTT HiBiT K562 cell line; type: cell-based, human
Description: as §3, §4, §5, §6, §7

[6] = tested on: K562 (human chronic myelogenous leukemia) cells; test: Cell Titer Glo 2.0 cell viability assay; type: cell-based; conditions: Homo sapiens, K562, 72 h, read-out: K562 GI50
[7] = tested on: Target C; test: HiBiT protein abundance assay, Target C (Promega Nano-Glo HiBiT Lytic Detection System, knock-in K562 cell line); type: cell-based, human; conditions: Homo sapiens, K562, 24 h, read-out: Effect on protein abundance, Target C (IC50 category)
Description: as §4, §5, §6, §7

[8] = tested on: MYB mRNA; test: RT-qPCR splicing assay, MYB canonical junction (CJ) and alternative junction (AJ) mRNA; type: cell-based, human; conditions: Homo sapiens
How it was run: as §1

[9] = decrease in HTT canonical junction (CJ) mRNA, RT-qPCR, read-out: HTT CJ IC50
[10] = increase in HTT alternative junction (AJ) mRNA, RT-qPCR, read-out: HTT AJ AC50
[11] = Table 5 panel, canonical junction qPCR, compound concentration having 50% response in CJ decrease, read-out: HTT IC50 (decrease in CJ mRNA levels)
[12] = Table 5 panel, canonical junction qPCR, compound concentration having 50% response in CJ decrease
[13] = HiBiT K562 cell line, 24 hours, top dose 10 μM; read-out: Effect on protein abundance, MYB (IC50 category)
[14] = HiBiT K562 cell line, 24 hours, top dose 10 μM; read-out: Effect on protein abundance, HTT (IC50 category)
[15] = K562 cells, 72 hours, Cell Titer Glo 2.0
[16] = HiBiT K562 cell line, 24 hours, top dose 10 μM

SMILES	IC50 [4, 13] [µM]	IC50 [5, 14] [µM]	GI50 [6, 15] [µM]	IC50 [7, 16] [µM]	also measured
Cc1cc(-c2ccc3c(=O)n(C4CCNCC4)c(C)nc3c2)cc2cn(C)nc12 [Compound 313]	1 to 10	> 10	1 to 10	> 10	IC50 [1, 9]: > 10000 nM; AC50 [1, 10]: > 10000 nM; IC50 [1, 11]: > 10000 nM; IC50 [2, 12]: 0.1 to 1 µM; IC50 [3, 12]: > 10 µM
O=c1c2c(F)cc(-c3cn[nH]c3)cc2ncn1C1CCNCC1 [Compound 321]	> 10	> 10	> 10	> 10	IC50 [1, 9]: > 10000 nM; AC50 [1, 10]: > 10000 nM; IC50 ([8]; decrease in MYB canonical junction (CJ) mRNA, RT-qPCR, read-out: MYB CJ IC50): 1000 to 10000 nM; AC50 ([8]; increase in MYB alternative junction (AJ) mRNA, RT-qPCR, read-out: MYB AJ AC50): 1000 to 10000 nM
Cc1cn2cc(-c3ccc4c(=O)n([C@H]5CCNC5)cc(C)c4c3)cc(F)c2n1 [Compound 451, (S)-6-(8-fluoro-2-methylimidazo[1,2-a]pyridin-6-yl)-4-methyl-2-(pyrrolidin-3-yl)isoquinolin-1(2H)-one]	1 to 10	1 to 10	1 to 10	> 10	IC50 [1, 11]: > 10000 nM; IC50 ([8]; Table 5 panel, canonical junction qPCR, compound concentration having 50% response in CJ decrease, read-out: MYB IC50 (decrease in CJ mRNA levels)): 1000 to 10000 nM; IC50 [2, 12]: 0.1 to 1 µM; IC50 [3, 12]: > 10 µM
Cc1cn2nc(-c3ccc4c(=O)n(C5CCNCC5)ccc4c3)cc(CC(=O)N(C)C)c2n1 [Compound 532, N,N-dimethyl-2-[2-methyl-6-[1-oxo-2-(4-piperidyl)-6-isoquinolyl]imidazo[1,2-b]pyridazin-8-yl]acetamide]	–	–	–	–	AC50 ([1]; read-out: HTT AJ AC50 (nM)): 100 to 1000 nM; IC50 ([1]; read-out: HTT CJ IC50 (nM)): 100 to 1000 nM; IC50 ([1]; read-out: HTT IC50 (decrease in CJ mRNA levels)): 100 to 1000 nM; AC50 ([8]; read-out: MYB AJ AC50 (nM)): 100 to 1000 nM; IC50 ([8]; read-out: MYB CJ IC50 (nM)): 100 to 1000 nM; IC50 ([8]; read-out: MYB IC50 (decrease in CJ mRNA levels)): 100 to 1000 nM; IC50 [2]: < 0.1 µM; IC50 [3]: 1 to 10 µM; IC50 ([4]; read-out: Effect on protein abundance, MYB (IC50 category); HiBiT K562 cell line, 24 hours, top dose 10 μM): 0.1 to 1 µM; IC50 ([5]; read-out: Effect on protein abundance, HTT (IC50 category); HiBiT K562 cell line, 24 hours, top dose 10 μM): 0.1 to 1 µM; GI50 [6]: 0.1 to 1 µM; IC50 [7]: 0.1 to 1 µM
Cn1cc2cc(-c3ccc4c(=O)n(C5CCNCC5)ccc4n3)c(O)cc2n1 [Compound 1239, 2-(6-hydroxy-2-methyl-2H-indazol-5-yl)-6-(piperidin-4-yl)-1,6-naphthyridin-5(6H)-one]	< 0.1	< 0.1	< 0.1	< 0.1	–
Cn1cc2cc(-c3ccc4c(=O)n([C@H]5CCNC6(CC6)C5)ccc4n3)c(O)cc2n1 [Compound 1245]	< 0.1	< 0.1	0.1 to 1	< 0.1	–
Cc1c(O)c(-c2ncc3c(=O)n(C4CCNC(C)C4)ccc3n2)cc2cn(C)nc12 (centres unmarked) [Compound 1320]	< 0.1	0.1 to 1	< 0.1	0.1 to 1	–
Cc1c(O)c(-c2ncc3c(=O)n(C4CCC(N)C4)ccc3n2)cc2cn(C)nc12 (centres unmarked) [Compound 1321]	0.1 to 1	0.1 to 1	0.1 to 1	1 to 10	–
Cc1c(O)c(-c2ncc3c(=O)n(C45CC(N)(C4)C5)ccc3n2)cc2cn(C)nc12 [Compound 1322]	1 to 10	> 10	1 to 10	1 to 10	–
Cc1c(O)c(-c2ncc3c(=O)n(C45CCC(N)(CC4)CC5)ccc3n2)cc2cn(C)nc12 [Compound 1323]	< 0.1	1 to 10	< 0.1	> 10	–
Cc1c(O)c(-c2ncc3c(=O)n(C45CCC(N)(C4)C5)ccc3n2)cc2cn(C)nc12 [Compound 1324]	0.1 to 1	1 to 10	0.1 to 1	1 to 10	–
Cc1c(O)c(-c2ncc3c(=O)n(C4CC5CC4CN5)ccc3n2)cc2cn(C)nc12 (centres unmarked) [Compound 1325]	0.1 to 1	0.1 to 1	0.1 to 1	1 to 10	–
Cc1c(O)c(-c2ncc3c(=O)n([C@H]4[C@@H]5CNC[C@@H]54)ccc3n2)cc2cn(C)nc12 [Compound 1326]	< 0.1	0.1 to 1	0.1 to 1	0.1 to 1	–
Cc1cn2cc(-c3ncc4c(=O)n(C5CCNCC5)c(C)cc4n3)cc(F)c2n1 [Compound 1327]	0.1 to 1	> 10	0.1 to 1	> 10	–
Cc1c(O)c(-c2ncc3c(=O)n([C@H]4C[C@H]5CC[C@@H](C4)N5)ccc3n2)cc2cn(C)nc12 [Compound 1329]	< 0.1	0.1 to 1	0.1 to 1	0.1 to 1	–
Cc1c(O)c(-c2ncc3c(=O)n([C@@H]4CC[C@H](N)C4)ccc3n2)cc2cn(C)nc12 [Compound 1333]	0.1 to 1	0.1 to 1	0.1 to 1	1 to 10	–
Cc1c(O)c(-c2ncc3c(=O)n([C@H]4CC[C@H](N)C4)ccc3n2)cc2cn(C)nc12 [Compound 1334]	0.1 to 1	0.1 to 1	0.1 to 1	1 to 10	–
